Results published in patent US7388014B2, “Quinazoline derivatives and therapeutic use thereof” (Rexahn Pharmaceuticals, Inc., priority 2004, dated 2008).

Key:
A549 = test: Cell growth inhibition assay (SRB), A549; format: cell-based, Human; conditions: A549 (lung), 96 hours
Text: (§1) Cancer cells used in this study to determine the effect of quinazoline compounds were obtained from the following sources: Human OVCAR-3 (ovary), MCF-7 (breast, hormone-dependent), Hs 578T (breast), MDA-MB-231 (breast), HeLa (cervix), PC3 (prostate), HepG2 (liver), A549 (lung), Caki-1 (kidney), HT-29 (colon), HCT116 (colon) and PANC-1 (pancreas) from the American Type Culture Collection (ATCC) (Manassas, Va.); U251 (brain) from Riken (Japan); MKN-45 (stomach) from DSMZ (Germany); UMRC2 (kidney) and Lox IMVI (melanoma) from the United States National Cancer Institute (Bethesda, Md.). All cell lines except Hs 578T, MDA-MB-231, HCT116, UMRC2, Caki-1 and PANC-1 were grown in RPMI1640 medium (Invitrogen, Carlsbad, Calif.) supplemented with 10% fetal bovine serum (“FBS”), 1 mM sodium pyruvate, 10 mM HEPES and 100 U/ml penicillin and 100 μg/ml streptomycin (“P/S”). Hs 578T, MDA-MB-231, HCT116, UMRC2, Caki-1 and PANC-1 cells were maintained in Dulbecco's modified Eagle's medium (“DMEM”, Invitrogen) supplemented with 10% FBS, P/S, 10 mM HEPES and 2 mM L-glutamine. All cells were incubated at 37° C. under humidified 5% CO2.
(§2) The growth inhibition of the substituted quinazoline derivative compounds against a variety of human tumor cells was evaluated. The relative importance of particular substituent groups on the compounds was also studied. The substituted quinazoline derivative compounds, prepared as described above, were tested, along with DMSO as a control.
(§3) The growth inhibition assay of various compounds against 15 human tumor cell lines was performed using the Sulforhodamnine B (“SRB”) method (Skehan et al., J. National Cancer Institute, 82: 1107-1112 (1990)). Briefly, exponentially growing tumor cells were seeded into a 96-well plate at a density of 2-3×10^3 cells/well and treated with quinazoline compounds the next day. Triplicate wells were used for each treatment. The cells were. incubated with the various compounds for 96 hours at 37° C. in a humidified 5% CO2 atmosphere. After 96-hour incubation, cells were fixed with 10% trichloroacetic acid (“TCA”), incubated for 1 hour at 4° C., and washed 3 times with tap water. Subsequently cells were stained with 0.4% sulforhodamine B in 1% acetic acid for 30 minutes, washed 4 times with 1% acetic acid, and air-dried again. After 5 minutes agitation in 10 mM Tris solution, the absorbance of each well was measured at 530 nm using Benchmark Plus Microplate reader (Bio-Rad Laboratories, Hercules, Calif.).
(§4) To translate the OD530 values into the number of live cells in each well, the OD530 values were compared to those on standard OD530—versus—cell number curves generated for each cell line. The percent survival was calculated using the formula: % Survival=live cell number [test]/live cell number [control]×100
(§5) The IC50 values were calculated by non-linear regression analysis.

HepG2 = test: Cell growth inhibition assay (SRB), HepG2; format: cell-based, Human; conditions: HepG2 (liver), 96 hours, read-out: Inhibition of cell growth (IC50, μM) HepG 2
Text: as §1, §2, §3, §4, §5

MKN-45 = test: Cell growth inhibition assay (SRB), MKN-45; format: cell-based, Human; conditions: MKN-45 (stomach), 96 hours
Text: as §1, §2, §3, §4, §5

PANC-1 = test: Cell growth inhibition assay (SRB), PANC-1; format: cell-based, Human; conditions: PANC-1 (pancreas), 96 hours
Text: as §1, §2, §3, §4, §5

HT-29 = test: Cell growth inhibition assay (SRB), HT-29; format: cell-based, Human; conditions: HT-29 (colon), 96 hours
Text: as §1, §2, §3, §4, §5

PC3 = test: Cell growth inhibition assay (SRB), PC3; format: cell-based, Human; conditions: PC3 (prostate), 96 hours
Text: as §1, §2, §3, §4, §5

U251 = test: Cell growth inhibition assay (SRB), U251; format: cell-based, Human; conditions: U251 (brain), 96 hours
Text: as §1, §2, §3, §4, §5

HeLa = test: Cell growth inhibition assay (SRB), HeLa; format: cell-based, Human; conditions: HeLa (cervix), 96 hours
Text: as §1, §2, §3, §4, §5

Lox IMVI = test: Cell growth inhibition assay (SRB), Lox IMVI; format: cell-based, Human; conditions: Lox IMVI (melanoma), 96 hours
Text: as §1, §2, §3, §4, §5

OVCAR-3 = test: Cell growth inhibition assay (SRB), OVCAR-3; format: cell-based, Human; conditions: OVCAR-3 (ovary), 96 hours
Text: as §1, §2, §3, §4, §5

MCF-7 = test: Cell growth inhibition assay (SRB), MCF-7; format: cell-based, Human; conditions: MCF-7 (breast, hormone-dependent), 96 hours
Text: as §1, §2, §3, §4, §5

MDA-MB-231 = test: Cell growth inhibition assay (SRB), MDA-MB-231; format: cell-based, Human; conditions: MDA-MB-231 (breast), 96 hours
Text: as §1, §2, §3, §4, §5

Hs 578T = test: Cell growth inhibition assay (SRB), Hs 578T; format: cell-based, Human; conditions: Hs 578T (breast), 96 hours
Text: as §1, §2, §3, §4, §5

UMRC2 = test: Cell growth inhibition assay (SRB), UMRC2; format: cell-based, Human; conditions: UMRC2 (kidney), 96 hours
Text: as §1, §2, §3, §4, §5

Caki-1 = test: Cell growth inhibition assay (SRB), Caki-1; format: cell-based, Human; conditions: Caki-1 (kidney), 96 hours
Text: as §1, §2, §3, §4, §5

[1] = system: 15 human tumor cell lines; test: Cell growth inhibition assay (SRB), summary over the panel of cell lines; format: cell-based; conditions: four of the tested cell lines
Text: Cancer cells used in this study to determine the effect of quinazoline compounds were obtained from the following sources: Human OVCAR-3 (ovary), MCF-7 (breast, hormone-dependent), Hs 578T (breast), MDA-MB-231 (breast), HeLa (cervix), PC3 (prostate), HepG2 (liver), A549 (lung), Caki-1 (kidney), HT-29 (colon), HCT116 (colon) and PANC-1 (pancreas) from the American Type Culture Collection (ATCC) (Manassas, Va.); U251 (brain) from Riken (Japan); MKN-45 (stomach) from DSMZ (Germany); UMRC2 (kidney) and Lox IMVI (melanoma) from the United States National Cancer Institute (Bethesda, Md.). […]
The growth inhibition of the substituted quinazoline derivative compounds against a variety of human tumor cells was evaluated. […]
The growth inhibition assay of various compounds against 15 human tumor cell lines was performed using the Sulforhodamnine B (“SRB”) method (Skehan et al., J. National Cancer Institute, 82: 1107-1112 (1990)). […] After 5 minutes agitation in 10 mM Tris solution, the absorbance of each well was measured at 530 nm using Benchmark Plus Microplate reader (Bio-Rad Laboratories, Hercules, Calif.). […]
The IC50 values were calculated by non-linear regression analysis. […]

For `CC(C)Nc1ncnc2cc3[nH]cnc3cc12` [RX-1834], the IC50 (A549) was 0.66 µM, the IC50 (HepG2) was 0.18 µM and the IC50 (MKN-45) was 0.1 µM. It also gave an IC50 (PANC-1) of over 3 µM, an IC50 (HT-29) of 0.24 µM and an IC50 (PC3) of 1.03 µM. The IC50 (U251) was 0.13 µM, the IC50 (HeLa) was 1.06 µM and the IC50 (Lox IMVI) was 0.67 µM. The IC50 (OVCAR-3) was 0.48 µM, the IC50 (MCF-7) was 0.11 µM and the IC50 (MDA-MB-231) was 0.53 µM. It also gave an IC50 (Hs 578T) of 0.79 µM, an IC50 (UMRC2) of 2.24 µM and an IC50 (Caki-1) of 0.65 µM. It also gave an IC50 [1] of under 200 nM.
